From patent US20150218213A1, “INHIBITORS OF ALPHA6 INTEGRIN/E-CADHERIN COMPLEX” (Università degli Studi di Torino, priority 2012, published 2015)

B1: angiopoietin-like 6: secreted factor; recombinant protein from Alexis Biochemicals, or produced by transduced U293 cells (protein)
chain: RAGAPRCTYTFVLPPQKFTGAVCWSGPASTRATPEAANASELAALRMRVGRHEELLRELQRLAAADGAVAGEVRALRKESRGLSARLGQLRAQLQHEAGPGAGPGADLGAEPAAALALLGERVLNASAEAQRAAARFHQLDVKFRELAQLVTQQSSLIARLERLCPGGAGGQQQVLPPPPLVPVVPVRLVGSTSDTSRMLDPAPEPQRDQTQRQQEPMASPMPAGHPAVPTKPVGPWQDCAEARQAGHEQSGVYELRVGRHVVSVWCEQQLEGGGWTVIQRRQDGSVNFFTTWQHYKAGFGRPDGEYWLGLEPVYQLTSRGDHELLVLLEDWGGRGARAHYDGFSLEPESDHYRLRLGQYHGDAGDSLSWHNDKPFSTVDRDRDSYSGNCALYQRGGWWYHACAHSNLNGVWHHGGHYRSRYQDGVYWAEFRGGAYSLRKAAMLIRPLKL

Legend:
[1] = test system: β4 integrin subunit; assay: Affinity purification of liver metastasis lysates on column-immobilized peptide, ELISA and phage binding of fractions; conditions: lysates of human liver metastases, in comparison with the controls; FIG. 8
Procedure: (FIG. 8A, FIG. 8B) Isolation of […]- (SEQ ID NO: 14) targeted integrin partners. To identify the molecular partner of α6 integrin in the peptide-targeted complex, synthetic […] (SEQ ID NO. 14) was immobilized on column-packed diaminodipropylamine-agarose and successively loaded with 30 mg of total protein from 7 pooled liver metastases secondary to CRCs. Protein fractions were collected after sequential incubation with high salt buffer (for the elution of unspecific proteins), CARAC-peptide (SEQ ID NO. 43) (as a negative control) and […]-peptide (SEQ ID NO. 14) (target elution). Protein amounts in collected fractions were followed by reading their OD at 280 nm (FIG. 8A). […] Control (salt, control peptide) and targeted ([…]—1, —2, and —6) (SEQ ID NO. 14) protein fractions (500 ng each) were evaluated for the presence of specific integrin subunits by an ELISA assay (FIG. 8D).
For the characterization of proteins targeted by […] […] Protein amounts in collected fractions were followed by reading their OD at 280 nm, and selected fractions were concentrated by the use of Microcon centrifugal filter devices with cut-off 10,000 (Millipore) to remove residual synthetic peptides. Proteins were quantified with the Coomassie (Bradford) Protein Assay Kit (Pierce), and 500 ng of each sample was evaluated for the presence of specific integrin subunits with a standard ELISA assay. […]

[2] = test system: NCI-H630 cells in which ITGA6, CDH1 or both mRNAs were silenced; assay: Cell adhesion to microwells coated with peptides and proteins; type: cell-based, human
Procedure: (§1) (FIG. 10A, […]) The receptor side: α6 integrin and E-cadherin are involved in the adhesion of metastatic CRC cells to the liver. HepG2 and NCI-H630 cells were incubated on 10-μm frozen sections of grossly normal human liver and adhered cells were fixed, stained and counted under a light microscope at 20× magnification. Photomicrographs representative of cell numbers (120 minutes' incubation) and morphology (5 days' incubation) are shown. The dotted line indicates a micrometastasis-like structure integrated into the hepatic tissue; arrowheads point to cell aggregates. Tissues were counterstained with hematoxylin (FIG. 10A). […] The same cells were evaluated for their capacity to adhere to the […] […] After 48 hours, cells on the lower side of the transwell membranes were fixed, stained and counted under a light microscope at 5× magnification. […] (SEQ ID NO: 14) or control peptide; after 30 minutes, adhered cells were fixed, stained and counted under a light microscope at 5× magnification. For NCI-H630, adhesion was evaluated on liver sections from 27 patients (Patient Ids: P29, P30, P33, P34, P35, P36, P56-76) and results are shown as the ratio of attached cells in the presence of […] […] In FIG. 10A-D, FIG. 10F and FIG. 10G, differences in the experimental points were evaluated for their statistical significance by the use of ANOVA followed by Bonferroni's post-test. […]

[3] = test system: NCI-H630 cells; assay: Liver adhesion assay on frozen sections of grossly normal human liver; type: cell-based; conditions: liver sections from 27 patients, versus control peptide, 30 minutes
Procedure: (§2) (FIG. 10A, […]) The receptor side: α6 integrin and E-cadherin are involved in the adhesion of metastatic CRC cells to the liver. HepG2 and NCI-H630 cells were incubated on 10-μm frozen sections of grossly normal human liver and adhered cells were fixed, stained and counted under a light microscope at 20× magnification. Photomicrographs representative of cell numbers (120 minutes' incubation) and morphology (5 days' incubation) are shown. The dotted line indicates a micrometastasis-like structure integrated into the hepatic tissue; arrowheads point to cell aggregates. Tissues were counterstained with hematoxylin (FIG. 10A). NCI-H630 cells silenced for ITGA6, CDH1 or both of these mRNAs were challenged in the same assay (FIG. 10B). Results are shown as mean±standard deviation for each experimental point in 3 independent experiments. (FIG. 10C) The ligand side: the […] (SEQ ID NO: 14) motif and angiopoietin-like 6 interact specifically with cells expressing the receptor proteins. Phage binding was investigated on NCI-H630 cells in which ITGA6, CDH1 or both mRNAs were silenced. Results, normalized to fd-tet binding, are shown as mean±standard deviation of 4 independent experiments. The same cells were evaluated for their capacity to adhere to the […] […] After 48 hours, cells on the lower side of the transwell membranes were fixed, stained and counted under a light microscope at 5× magnification. […] (SEQ ID NO: 14) or control peptide; after 30 minutes, adhered cells were fixed, stained and counted under a light microscope at 5× magnification. For NCI-H630, adhesion was evaluated on liver sections from 27 patients (Patient Ids: P29, P30, P33, P34, P35, P36, P56-76) and results are shown as the ratio of attached cells in the presence of […] […] In FIG. 10A-D, FIG. 10F and FIG. 10G, differences in the experimental points were evaluated for their statistical significance by the use of ANOVA followed by Bonferroni's post-test. […] Fourteen days after surgery, animals were sacrificed and livers were explanted and photographed for the quantification of external tumor areas. […]

[4] = test system: primary CRC cell lines; assay: as above; type: cell-based
Procedure: as §2

[5] = test system: U293 cells stably overexpressing E-cadherin, α6 integrin or both; assay: Cell proliferation assay (crystal violet); type: cell-based, human; conditions: 100 μM peptide, complete (10% FCS) medium; FIG. 12
Procedure: U293 cells stably overexpressing E-cadherin, α6 integrin or both were grown in complete (10% FCS) culture medium in the presence of either the control or […] (SEQ ID NO: 14) peptide. At 24 hour time points, cells were fixed and stained with crystal violet; their numbers were estimated by spectrophotometric evaluation. Results are shown as mean±standard deviation for each experimental point in 2 independent experiments.
To test the effects of peptides on cell proliferation, we seeded 2×10^4 cells per well in a 24-well plate, in the presence of either control or […] (SEQ ID NO: 14) peptide (100 μM). At the indicated time points, cells were fixed in glutaraldehyde, stained in crystal violet, and solubilized in 10% acetic acid. Cell growth was evaluated by absorbance at 590 nm in a microplate reader (Perkin Elmerm Waltham, Mass.). A calibration curve was set up with known numbers of cells and a linear correlation between absorbance and cell counts was established up to 5×10^5 cells/well.

[6] = test system: LS-174T cells; assay: Hepatic colonization model, intrahepatic injection of CRC cells with soluble peptide; type: in vivo, CD-1 nude mice; conditions: LS-174T intrahepatic, 14 days
Procedure: as §1

[7] = test system: HCCM-1544 tumor and CRC cell lines (HCT-116m, SW-48, DLD-1, LS-174T); assay: Liver homing model, intrasplenic implantation of CRC cells with soluble peptide; type: in vivo, CD-1 nude mice; conditions: 100 μM peptide co-injected, significant in all models except DLD-1
Excerpt: To obtain an in vivo model of metastatic CRC, we implanted the patient-derived HCCM-1544 tumor as well as different CRC cell lines (HCT-116m, SW-48, DLD-1 and LS-174T) intrasplenically into CD-1 nude mice (2×10^6/mouse). To evaluate the effect of […] (SEQ ID NO: 14) on liver metastasis, we injected cells either in medium alone (vehicle) or in the presence of the soluble peptide ([…]) (SEQ ID NO: 14). At the indicated time points, mice were euthanized and their livers and spleens were explanted. Livers were photographed for the quantification of external metastatic areas. Representative pictures of whole livers from 2 mice/group are shown for macroscopic evaluation of tumor morphology; the indicated p-values are referred to statistical analysis performed either with Fisher's exact test (in black) or t-test (in red). Spleen (primary tumor) and liver (metastasis) samples were OCT-frozen, cut in 10-μm sections and immunostained with anti-α6 integrin and anti-E-cadherin antibodies, followed by imaging with a confocal microscope. […]
Six-week female CD1-nude mice were purchased from Charles River (Lecco, Italy). […] Mice were strictly monitored until completely awake, and oral ampicillin was administered for 5 days following the surgery. […] External metastatic areas were quantified using ImageJ software.

[8] = test system: U293 cells stably transduced with α6 integrin, E-cadherin or both; assay: Transwell migration toward an angiopoietin-like 6 gradient; type: cell-based, human; conditions: 48 hours
Procedure: as §1

Molecule | integrin subunit content of peptide- and phage-targeted protein fractions [1] | cell adherence to microwells coated with peptide ([2]; NCI-H630 with ITGA6 or both mRNAs silenced, most pronounced with both downmodulated) | cell adhesion to human liver sections [3] | adhesiveness on hepatic tissues ([4]; HCT-116m, HT-29, SW-48 and DLD-1) | adhesion to normal hepatic tissues ([4]; non-metastatic HCT-116 cells) | cell proliferation [5] | liver tumors (external tumor areas) ([6]; 100 μM peptide co-injected) | overall morphology and levels of receptor complex in the tumors [6] | homing of CRC cells to the liver (liver metastases) [7] | cell binding to microwells coated with recombinant protein ([2]; NCI-H630 cells in which both mRNAs were silenced) | cell migration toward ligand gradient ([8]; U293 cells expressing both α6 integrin and E-cadherin) | cell migration toward ligand gradient ([8]; U293 cells with either α6 integrin or E-cadherin)
CGIYRLRSC (Peptide inhibiting the E-cadherin/alpha6 integrin complex) [Targeting synthetic LRS-motif peptide, from New England Peptides] | substantial enrichment in the β4 subunit | impaired adherence | significant decrease in cell adhesion | significantly inhibited | not influenced | no effects | significant reduction of liver tumors | unchanged | diminished homing of CRC cells to the liver |  |  | 
B1 |  |  |  |  |  |  |  |  |  | significantly lower binding | significantly stimulated | not influenced
